Reference: US8629127B2, “Compositions and methods of treatment for inflammatory diseases” (The Board of Regents of the University of Oklahoma, priority 2004, dated 2014)

Assays:
TNBS-induced colitis [1] = test: Macroscopic assessment of TNBS-induced colitis; format: in vivo, rat; conditions: scale 0-6
Description: Male Sprague Dawley rats (200-250 grams) were housed in cages containing contact bedding. Rats were deprived of food for 24 hrs prior to the induction of colitis, but were allowed free access to water throughout the experiment. Institutional approval for experimental protocols was provided by the research and animal care committees of the research services at the Oklahoma City Veterans Administration Medical Center.
(§1) Following a 24 hr fast, rats were lightly anesthetized using isoflurane followed by insertion of a polyethylene catheter into the anus. The tip of the catheter was advanced 8 cm proximal from the anus and a single dose of TNBS (Sigma, St. Louis, Mo.), dissolved in 50% ethanol, was injected through the cannula (15 mg dissolved in a 0.6 ml volume of 50% ethanol) to induce colitis. Following the administration of TNBS the animals were maintained in a head-down position for approximately 60 seconds to prevent leakage of the infusate. After 72 hrs, rats dosed initially with TNBS were randomly assigned to one of four treatment groups to receive daily intracolonic therapy in a manner similar to that used for TNBS administration. […] An additional group of rats (Group E) served as control and received saline per rectum on day 0 and at subsequent intervals that corresponded to treatment protocols. Rats were treated for either 5 or 8 days and then sacrificed by cervical dislocation. FIG. 1 illustrates the design of these experiments.
Upon sacrifice, the distal 8 cm of the colon was removed, opened by a longitudinal incision and rinsed with phosphate buffered saline to remove fecal material. Macroscopic assessment of colitis was carried out by an independent observer who was unaware of the treatment groups. Inflammation was present if the mucosa was erythematous. Ulceration of the mucosa was defined as a distinct break or interruption of the mucosa. Once macroscopic damage was assessed full thickness colonic tissue samples were taken from the inflamed areas and either processed for histology or snap frozen in liquid nitrogen for subsequent cytokine measurement and determination of myeloperoxidase (MPO) activity.

TNBS-induced colitis [2] = test: Histological assessment of TNBS-induced colitis; format: in vivo, rat; conditions: for Cumulative (aggregate) microscopic colitis injury score: 8 days after TNBS, 5-day treatment, scale 0-15; for Decrease in aggregate microscopic injury score: 11 days after TNBS, 8-day treatment, vs TNBS alone
Description: Male Sprague Dawley rats (200-250 grams) were housed in cages containing contact bedding. Rats were deprived of food for 24 hrs prior to the induction of colitis, but were allowed free access to water throughout the experiment. Institutional approval for experimental protocols was provided by the research and animal care committees of the research services at the Oklahoma City Veterans Administration Medical Center. Following a 24 hr fast, rats were lightly anesthetized using isoflurane followed by insertion of a polyethylene catheter into the anus. The tip of the catheter was advanced 8 cm proximal from the anus and a single dose of TNBS (Sigma, St. Louis, Mo.), dissolved in 50% ethanol, was injected through the cannula (15 mg dissolved in a 0.6 ml volume of 50% ethanol) to induce colitis. Following the administration of TNBS the animals were maintained in a head-down position for approximately 60 seconds to prevent leakage of the infusate. After 72 hrs, rats dosed initially with TNBS were randomly assigned to one of four treatment groups to receive daily intracolonic therapy in a manner similar to that used for TNBS administration. […] An additional group of rats (Group E) served as control and received saline per rectum on day 0 and at subsequent intervals that corresponded to treatment protocols. Rats were treated for either 5 or 8 days and then sacrificed by cervical dislocation. FIG. 1 illustrates the design of these experiments. Colonic tissue samples taken from the initial segment were immersed in 10% phosphate buffered formalin and subsequently embedded in paraffin. Sections of 3 micron thickness were cut and stained with hematoxylin and eosin. The slides were then evaluated by a pathologist for epithelial damage, architectural changes, mononuclear infiltration, polymorphonuclear leukocyte (PMN) infiltration and ulceration. The individual microscopic features of colitis were graded according to criteria noted in Table 2. In addition to scoring individual features of colitis, an aggregate score of colitis was tabulated by adding together individual scores, thus, providing a global assessment of colitis. [table]

Myeloperoxidase activity = Myeloperoxidase activity in colon tissue, TNBS colitis; format: in vivo, rat; conditions: 11 days after TNBS; 8-day treatment
Method: as §1, with “experiments. Myeloperoxidase activity was used as an indirect measure of the severity of colonic inflammation by PMNs. […] C. The tissues were then removed from storage at −80° C. and allowed to thaw on ice. […] The absorbance changes were read at 450 nm and recorded. Results were expressed as ng/ml/g of tissue.” for “experiments.”

IL-1A = test: Cytokine gene expression in rat colon (RPA), TNBS colitis; format: in vivo; conditions: 11 days after TNBS, 8-day treatment
Method: (§2) Following a 24 hr fast, rats were lightly anesthetized using isoflurane followed by insertion of a polyethylene catheter into the anus. The tip of the catheter was advanced 8 cm proximal from the anus and a single dose of TNBS (Sigma, St. Louis, Mo.), dissolved in 50% ethanol, was injected through the cannula (15 mg dissolved in a 0.6 ml volume of 50% ethanol) to induce colitis. Following the administration of TNBS the animals were maintained in a head-down position for approximately 60 seconds to prevent leakage of the infusate. After 72 hrs, rats dosed initially with TNBS were randomly assigned to one of four treatment groups to receive daily intracolonic therapy in a manner similar to that used for TNBS administration. […] An additional group of rats (Group E) served as control and received saline per rectum on day 0 and at subsequent intervals that corresponded to treatment protocols. Rats were treated for either 5 or 8 days and then sacrificed by cervical dislocation. FIG. 1 illustrates the design of these experiments. Following the manufacturer's protocol, 1 ml of TRI Reagent (Sigma, St. Louis, Mo.) is used per 100 mg of tissue. The frozen tissue is placed into the TRI Reagent and immediately homogenized using a tissue macerator. The homogenates are transferred to microcentrifuge tubes and 0.2 ml of chloroform is added per ml of TRI Reagent used. The samples are shaken thoroughly and allowed to sit at room temp for 3 min. Samples were then centrifuged at 12000×g for 15 min at […]. After centrifugation, the upper aqueous phase was transferred to a new tube and […] of 2-propanol is added to precipitate the RNA. After sitting at room temp for 10 min. the samples are centrifuged at 12000×g for 15 min. The supernatants are discarded and the pellets are washed in 70% ethanol followed by centrifugation at 12000×g for 5 min. The ethanol was removed and the pellets are dissolved in 50 μl of DEPC treated water per sample. Quantitation is performed by spectrophotometry at 260 nm and 280 nm. RPA analysis was performed with RiboQuant™ multi-probe RNase protection assay system (BD Biosciences-Pharmingen, San Diego, Calif.). To 20 μg of total RNA in 8 μl of hybridization buffer and 2 μl of ^32P-labeled in vitro transcribed RNA probes were added. The probes were transcribed from the multiprobe template set rCK-1 which as a panel of probes against IL-1a, IL-1b, IL-3, IL-5, IL-10, IL-2, TNFα, TNBβ, GAPDH genes. Probes were prepared according to the manufactures protocol. The RNA samples containing labeled probes were incubated briefly at 90° C., slowly cooled to 56° C. and hybridized overnight at that temperature. The samples were then slowly cooled to 30° C. Thereafter, a mixture of RNases A and T1 was added to digest single-stranded RNA leaving the double-stranded RNA formed by the probes annealing to their cognate mRNAs intact. Following proteinase K digestion and phenol-chloroform extraction, the undigested double-stranded RNA was precipitated with ammonium acetate and ethanol. […] The ethanol was removed and the pellets were dissolved in 5 μl of formamide loading dye. The double-stranded RNAs were resolved on a 5% polyacrylamide/urea gel run in TBE buffer. After electrophoresis, the gel was dried at 80° C. under vacuum and then exposed to a PhosphorImager screen overnight. Detection and quantitation of the resolved bands on the gel were performed on a Storm PhosphorImager™ system (Amersham Biosciences, Piscataway, N.J.).

IL-1B = test: as above; format: in vivo; conditions: 11 days after TNBS, 8-day treatment
Method: as §2

IL-4 = test: as above; format: in vivo; conditions: 11 days after TNBS, 8-day treatment
Method: as §2

IL-6 = test: as above; format: in vivo; conditions: 11 days after TNBS, 8-day treatment
Method: as §2

TNF-α = test: as above; format: in vivo; conditions: 11 days after TNBS, 8-day treatment
Method: as §2

DSS-induced colitis = test: Histological assessment of DSS-induced colitis; format: in vivo, rat; conditions: DSS colitis (4% DSS, 4 days); 4-day intracolonic treatment; maximal score 12
Description: Male Sprague Dawley rats (200-250 grams) were housed in cages containing contact bedding. Rats were deprived of food for 24 hrs prior to the induction of colitis, but were allowed free access to water throughout the experiment. Institutional approval for experimental protocols was provided by the research and animal care committees of the research services at the Oklahoma City Veterans Administration Medical Center. Colitis was induced by oral administration of a 4% solution of DSS (dextran sulfate sodium) in drinking water for 4 days. […] Animals received treatment for 4 days. Macroscopic indices of colonic injury were scored and tabulated. Histological features that were examined included epithelial damage and mucosal ulceration. Additional measures included determination of serum C-reactive protein (CRP) levels and cytokine gene expression in colonic tissues performed by ribonuclease protection assay (RPA). Colonic tissue samples taken from the initial segment were immersed in 10% phosphate buffered formalin and subsequently embedded in paraffin. Sections of 3 micron thickness were cut and stained with hematoxylin and eosin. The slides were then evaluated by a pathologist for epithelial damage, architectural changes, mononuclear infiltration, polymorphonuclear leukocyte (PMN) infiltration and ulceration. […]

[3] = patients with inflammatory bowel disease; cited from earlier work
[4] = 8 days after TNBS, 5-day intracolonic treatment, 5-ASA 100 mg/kg, NAC 40 mM
[5] = 11 days after TNBS, 8-day intracolonic treatment

Row | Compound | Macroscopic injury score (TNBS-induced colitis [1]; [4]) | Macroscopic injury score (TNBS-induced colitis [1]; [5]) | Cumulative (aggregate) microscopic colitis injury score (TNBS-induced colitis [2]) | Decrease in aggregate microscopic injury score (TNBS-induced colitis [2]) | Reduction of MPO activity below TNBS values (Myeloperoxidase activity) | IL-1A gene expression, Mean ± SEM (IL-1A) | IL-1B gene expression, Mean ± SEM (IL-1B) | IL-4 gene expression, Mean ± SEM (IL-4) | IL-6 gene expression, Mean ± SEM (IL-6) | TNF-α gene expression, Mean ± SEM (TNF-α) | Aggregate microscopic injury score (DSS-induced colitis) | Patients who cannot tolerate this medication (side effects) [3]
1 | CC(=O)N[C@@H](CS)C(=O)O [NAC, N-acetylcysteine] | 4.1±0.6 | 1.2±0.2 | 9.0±1.8 | 53% | 40% | 1.28 ± 0.16 Relative O.D units | 11.88 ± 1.0 Relative O.D units | 1.20 ± 0.26 Relative O.D units | 0.76 ± 0.14 Relative O.D units | 1.04 ± 0.017 Relative O.D units | 4.0±1.1 | 
2 | Nc1ccc(O)c(C(=O)O)c1 [5-ASA, 5-aminosalicylic acid] | 3.0±0.7 | 1.8±0.2 | 9.0±0.9 | 46% | 32% | 1.33 ± 0.18 Relative O.D units | 11.49 ± 2.54 Relative O.D units | 1.40 ± 0.25 Relative O.D units | 0.79 ± 0.22 Relative O.D units | 1.25 ± 0.12 Relative O.D units | 4.1±0.9 | 
3 | O=C(O)c1cc(/N=N/c2ccc(S(=O)(=O)Nc3ccccn3)cc2)ccc1O [sulfasalazine] |  |  |  |  |  |  |  |  |  |  |  | up to one third
